# Measured values from patent US6743923B2, “Antirheumatic agent” (Shionogi & Co., Ltd., priority 1997, dated 2004).
# Assays:
# [1] = test system: articular destruction in adjuvant arthritis; test: Rat adjuvant arthritis: inhibitory effect against articular destruction (X-ray score); format: in vivo
# Method: A rat adjuvant arthritis model, which is commonly used in an in vivo evaluation for antirheumatic agents, was employed in this evaluation. To prepare an arthritis model, heat-killed cells of Mycobacterium butyricum (Difco) were suspended in mineral oil, and a rat was intradermally injected with 0.05 mL of 1% solution of the suspension at the plantar of left hind leg.
# The right and left hind legs of the arthritis rats used in the above experiments were radiographed using a soft X-ray radiation and evaluated by the X-ray observation score for the bone destruction in the arthrosis. The effects were numerically evaluated by grading the articular destruction from 0 to 3 (0: normal; 1: low degree of articular and bone destruction; 2: medium degree of articular and bone destruction, and neogenesis of cartilage; 3: strong articular and bone destruction), and the efficacy in the drug-administered group was determined in comparison with the vehicle-administered group according to Wilcoxon U-test (*p<0.05, **p<0.01)(FIG. 2).
# blood NOx level = test: Suppressive effect on blood NOx level in adjuvant arthritis rat; format: in vivo; details: oral, 28 days
# Method: An adjuvant arthritis model was prepared in the same manner as above, and the compounds were orally administered to the animals for 28 days beginning on the day before the adjuvant injection. Blood was then collected under anesthetization and the serum was ultracentrifuged. The supernatant was ultrafiltrated to prepare a sample for NOx (nitrite+nitrate) measurement.
structure (smiles),measurement,setting,value
"CCN1CC/C(=C\c2cc(C(C)(C)C)c(O)c(C(C)(C)C)c2)S1(=O)=O [Compound Ia, (E)-2-Ethyl-5-(3,5-di-tert-butyl-4-hydroxy)benzylidene-1,2-isothiazolidine-1,1-dioxide]",dose with dose-dependent and significant inhibitory effect against the articular destruction,[1]; adjuvant-injected leg,≥ 3 mg/kg/day
same,dose with dose-dependent and significant inhibitory effect against the articular destruction,[1]; non-injected leg,≥ 1 mg/kg/day
same,dose with dose-dependent and significant inhibitory effect on the increase of blood NOx level,blood NOx level,≥ 3 mg/kg/day
